The text below walks through data of US20260215431A1, “AN HERBICIDAL COMBINATION, COMPOSITION AND METHOD OF CONTROLLING WEEDS USING THE SAME” (priority 2023, published 2026).

For one test, the system named is Euphorbia heterophylla. Nature of the test: Greenhouse post-emergence herbicidal efficacy on Euphorbia heterophylla. Format: in vivo. Here is the method:
(§1) The expected efficacy of a combination of L-glufosinate ammonium and the other herbicides was calculated using the well-established Colby method. Any difference between the observed and “expected” efficacy could be attributed to synergy between the two compounds.
(§2) In the Colby method, the expected (or predicted) response of a combination of herbicides is calculated by taking the product of the observed response for each individual component of the combination when applied alone, divided by 100, and subtracting this value from the sum of the observed response for each component when applied alone. An unexpected enhancement in efficacy of the combination is then determined by comparing the observed response of the combination to the expected (or predicted) response as calculated from the observed response of each individual component alone. If the observed response of the combination is greater than the expected (or predicted) response, or stated conversely, if the difference between the observed and expected response is greater than zero, then the combination is said to be synergistic or unexpectedly effective (Colby, S. R., Weeds, 1967(15), p. 20-22). The Colby method requires only a single dose of each herbicide applied alone and the mixture of both doses. The formula used to calculate the expected efficacy (EE) which was compared with the observed efficacy (OE) to determine the efficacy of the present disclosure is explained hereinbelow:
(§3) The expected efficacy for a combination of two active ingredients is as follows:
(§4) The expected efficacy for a combination of three active ingredients is as follows:
(§5) [formula] • wherein, • A=Observed efficacy of active ingredient A at the same concentration as used in the mixture. • B=Observed efficacy of the active ingredient B at the same concentration as used in the mixture. • C=Observed efficacy of the active ingredient C at the same concentration as used in the mixture.
(§6) Greenhouse trials were conducted to evaluate the efficacy of the combination of L-glufosinate ammonium and metribuzin, L-glufosinate ammonium and metribuzin+sulfentrazone and L-glufosinate ammonium and metribuzin+oxyfluorfen—on weeds Borreria verticillate, Euphorbia heterophylla.
(§7) The soil used was sandy clay loam—sand: 68.0%; silt: 8.0%; clay: 24.0%.
(§8) All treatments were in 4 replications per treatment with a spray volume of 150 L/ha.
The percentage efficacy was calculated at 7, 14 and 21 DAA. The target weed was Euphorbia heterophylla, and the concentration of the herbicide and the results are recorded in Table 2.
The percentage efficacy was calculated at 14, 21 and 28 DAA. The target weed was Euphorbia heterophylla, and the concentration of the herbicides and the results are recorded in Table 4.
The percentage efficacy was calculated at 14 and 21 DAA. The target weed was Euphorbia heterophylla, and the concentration of the herbicides and the results are recorded in Table 6.

In the next test the test system is Borreria verticillata. The test is described as follows: Greenhouse post-emergence herbicidal efficacy on Borreria verticillata. The class given is in vivo. As to conditions: 14 DAA. The protocol:
as §1, §2, §3, §4, §5, §6, §7, §8
The percentage efficacy was calculated at 14 days after application (DAA). The target weed was Borreria verticillata, and the concentration of the herbicide and the results are recorded in Table 1.
The percentage efficacy was calculated at 14 DAA. The target weed was Borreria verticillata, and the concentration of the herbicides and the results are recorded in the Table 3.
The percentage efficacy was calculated at 14 DAA. The target weed was Borreria verticillata, and the concentration of the herbicides and the results are recorded in Table 5.

In test [1] the test system is Viola arvensis, Bromus spp., Lolium spp., Agropyron repens and Urtica urens. As to conditions: reported by Hoechst et al., 1991; cited from earlier work.

SMILES strings stand for the structures.

For the molecule `CP(=O)(O)CC[C@H](N)C(=O)O.N` [L-glufosinate ammonium, ammonium (2S)-2-amino-4-(methylphosphinato)butyric acid], the “Observed efficacy (%) of L-glufosinate ammonium (150 g a.i./ha)” value was 95% with Euphorbia heterophylla (Table 2, 7 DAA); 85% in the test with Euphorbia heterophylla (Table 2, 14 DAA); 70% in the test on Euphorbia heterophylla (Table 2, 21 DAA); 88% in the test with Euphorbia heterophylla (Table 4, 14 DAA); 85% in the test with Euphorbia heterophylla (Table 4, 21 DAA); 85% with Euphorbia heterophylla (Table 4, 28 DAA). Also, the “Observed efficacy (%) of L-glufosinate ammonium (150 g a.i./ha)” value with Euphorbia heterophylla (Table 6, 14 DAA) was determined as 85%; in the test on Euphorbia heterophylla (Table 6, 21 DAA) it was 70%; in the test with Borreria verticillata (Table 1), 80%; in the test with Borreria verticillata (Table 3), 80%; in the test with Borreria verticillata (Table 5), 80%.
Regarding `CCOc1cc(Oc2ccc(C(F)(F)F)cc2Cl)ccc1[N+](=O)[O-]` [Oxyfluorfen], the “Observed efficacy (%) of oxyfluorfen (430 g a.i./ha)” value is reported as 65% with Euphorbia heterophylla (Table 4, 14 DAA); 50% with Euphorbia heterophylla (Table 4, 21 DAA); 40% with Euphorbia heterophylla (Table 4, 28 DAA); 70% with Borreria verticillata (Table 3, 430 g a.i./ha).
As for `Cc1nn(-c2cc(NS(C)(=O)=O)c(Cl)cc2Cl)c(=O)n1C(F)F` [Sulfentrazone], the “Observed efficacy (%) of sulfentrazone (300 g a.i./ha)” value in the test on Euphorbia heterophylla (Table 6, 14 DAA) is recorded as 25%; in the test on Euphorbia heterophylla (Table 6, 21 DAA), 15%; in the test on Borreria verticillata (Table 5, 300 g a.i./ha), 30%.
Turning to `CSc1nnc(C(C)(C)C)c(=O)n1N` [Metribuzin], the “Observed efficacy (%) of metribuzin (252 g a.i./ha)” value came to 35% in the test with Euphorbia heterophylla (Table 2, 7 DAA); 25% in the test on Euphorbia heterophylla (Table 2, 14 DAA); 15% with Euphorbia heterophylla (Table 2, 21 DAA); 30% in the test with Euphorbia heterophylla (Table 4, 14 DAA); 20% in the test on Euphorbia heterophylla (Table 4, 21 DAA); 10% in the test on Euphorbia heterophylla (Table 4, 28 DAA). Further, the “Observed efficacy (%) of metribuzin (252 g a.i./ha)” value with Euphorbia heterophylla (Table 6, 14 DAA) amounted to 85%; in the test on Euphorbia heterophylla (Table 6, 21 DAA), 85%; in the test on Borreria verticillata (Table 1), 30%; in the test with Borreria verticillata (Table 3), 30%; with Borreria verticillata (Table 5), 55%.
Turning to `CP(=O)(O)CCC(N)C(=O)O` (racemic) [glufosinate, DL-homoalanin-4-yl(methyl)phosphinic acid], the “Control of weed species by glufosinate” value in test [1] was “either not combated, or only weakly combated”.
